This note sets out measurements from patent US11970498B2, “CDK2 inhibitors” (BLUEPRINT MEDICINES CORPORATION, priority 2021, dated 2024).

Each structure is given as a SMILES string.

Experiment [1] deals with CDK2/Cyclin E (Homo sapiens, UniProt P24941). Put plainly: CDK2/Cyclin E biochemical phosphorylation assay (Caliper mobility shift). To be noted: apparent IC50; 1.0 mM ATP or ATP Km; 1.25 nM enzyme; 25° C.; read-out: CDK2/cyclin E1 IC50. The method in brief: (§1)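 Caliper electrophoretic separation of substrate and phosphopeptide gave apparent IC50s. Enzymes: CDK1/Cyclin B1 GST-tag 1.5 nM, CDK2/Cyclin E 1.25 nM; ATP 1.0 mM or at Km; 7.5 µM FL-peptide; pH 7.5 HEPES buffer, 1% DMSO; room temperature until 10–20% phosphorylated, then EDTA quench.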

Experiment [2] deals with T1, CDK1/Cyclin B1, GST-tag (Homo sapiens, UniProt P06493).
T1 construct: GST
T1 sequence (P06493 whole entry): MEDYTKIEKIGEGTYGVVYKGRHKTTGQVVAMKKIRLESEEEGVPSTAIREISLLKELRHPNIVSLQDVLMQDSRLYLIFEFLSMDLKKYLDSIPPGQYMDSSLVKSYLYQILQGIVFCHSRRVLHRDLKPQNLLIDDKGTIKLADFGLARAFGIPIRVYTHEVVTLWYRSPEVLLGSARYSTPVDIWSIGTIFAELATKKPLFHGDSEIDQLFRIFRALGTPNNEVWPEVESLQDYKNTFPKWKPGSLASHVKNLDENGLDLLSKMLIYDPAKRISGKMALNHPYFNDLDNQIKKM
T1 sequence (P14635 whole entry partner): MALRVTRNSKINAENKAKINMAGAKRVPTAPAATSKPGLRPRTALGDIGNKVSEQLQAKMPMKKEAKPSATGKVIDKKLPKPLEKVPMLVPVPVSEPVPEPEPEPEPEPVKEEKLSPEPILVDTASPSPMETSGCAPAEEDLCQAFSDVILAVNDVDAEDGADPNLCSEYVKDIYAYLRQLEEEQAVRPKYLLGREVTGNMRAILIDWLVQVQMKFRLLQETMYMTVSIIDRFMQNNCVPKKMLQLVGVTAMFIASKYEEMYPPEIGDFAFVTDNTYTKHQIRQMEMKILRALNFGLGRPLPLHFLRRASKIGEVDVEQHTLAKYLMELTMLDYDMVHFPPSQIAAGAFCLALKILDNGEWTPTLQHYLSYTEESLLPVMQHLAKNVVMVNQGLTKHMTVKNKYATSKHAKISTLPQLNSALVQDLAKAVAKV
Description: CDK1/Cyclin B1 biochemical phosphorylation assay (Caliper mobility shift). As to conditions: apparent IC50; 1.0 mM ATP or ATP Km; 1.5 nM enzyme; 25° C. The method in brief: as §1

As to `FC(F)Oc1cc(Nc2cnc3cnn(C4CCC(F)(F)CC4)c3n2)n[nH]1` [Example 44, 1-(4,4-difluorocyclohexyl)-N-(5-(difluoromethoxy)-1H-pyrazol-3-yl)-1H-pyrazolo[3,4-b]pyrazin-6-amine], the IC50 in experiment [1] was 10 to 20 nM; in experiment [2], at least 500 nM.
Turning to `C[C@@H](O)c1nn([C@@H](C)c2cccnc2)c2nc(Nc3cc(OC(F)F)[nH]n3)cnc12` (single isomer, unassigned) [Example 178, (S)-1-(6-((5-(difluoromethoxy)-1H-pyrazol-3-yl)amino)-1-((S)-1-(pyridin-3-yl)ethyl)-1H-pyrazolo[3,4-b]pyrazin-3-yl)ethan-1-ol or (R)-1-(6-((5-(difluoromethoxy)-1H-pyrazol-3-yl)amino)-1-((S)-1-(pyridin-3-yl)ethyl)-1H-pyrazolo[3,4-b]pyrazin-3-yl)ethan-1-ol], the IC50 was at most 10 nM in experiment [1] and at least 500 nM in experiment [2].
In the same order, the values of `C[C@@H](c1cc(Cl)ccn1)n1ncc2ncc(Nc3cc(OC(F)F)[nH]n3)nc21` (single isomer, unassigned) [Example 188, (S)-1-(1-(4-chloropyridin-2-yl)ethyl)-N-(5-(difluoromethoxy)-1H-pyrazol-3-yl)-1H-pyrazolo[3,4-b]pyrazin-6-amine or (R)-1-(1-(4-chloropyridin-2-yl)ethyl)-N-(5-(difluoromethoxy)-1H-pyrazol-3-yl)-1H-pyrazolo[3,4-b]pyrazin-6-amine] are 30 to 100 nM and at least 500 nM.
For `CC[C@@H](c1ccccn1)n1ncc2ncc(Nc3cc(OC(F)F)[nH]n3)nc21` [Example 97, (S)-N-(5-(difluoromethoxy)-1H-pyrazol-3-yl)-1-(1-(pyridin-2-yl)propyl)-1H-pyrazolo[3,4-b]pyrazin-6-amine], the IC50 was at most 10 nM in experiment [1] and at least 500 nM in experiment [2].
With `Cc1nn(Cc2cccnc2)c2nc(Nc3cc(OC(F)F)[nH]n3)cnc12` [Example 84, N-(5-(difluoromethoxy)-1H-pyrazol-3-yl)-3-methyl-1-(pyridin-3-ylmethyl)-1H-pyrazolo[3,4-b]pyrazin-6-amine], the IC50 in experiment [1] is at most 10 nM; in experiment [2], at least 500 nM.
With `COc1cc(Nc2cnc3cnn([C@@H](C)c4cc(F)ccn4)c3n2)n[nH]1` (single isomer, unassigned) [Example 186, (S)-1-(1-(4-fluoropyridin-2-yl)ethyl)-N-(5-methoxy-1H-pyrazol-3-yl)-1H-pyrazolo[3,4-b]pyrazin-6-amine or (R)-1-(1-(4-fluoropyridin-2-yl)ethyl)-N-(5-methoxy-1H-pyrazol-3-yl)-1H-pyrazolo[3,4-b]pyrazin-6-amine], the IC50 was 10 to 20 nM in experiment [1] and at least 500 nM in experiment [2].
Take `COc1cc(Nc2cnc3cnn([C@@H](C)c4ccccn4)c3n2)n[nH]1` [Example 45, (S)-N-(5-methoxy-1H-pyrazol-3-yl)-1-(1-(pyridin-2-yl)ethyl)-1H-pyrazolo[3,4-b]pyrazin-6-amine]: the IC50 is at most 10 nM in experiment [1] and at least 500 nM in experiment [2].
On to `Fc1cccc(Cn2ncc3ncc(Nc4cc(OC(F)F)[nH]n4)nc32)c1` [Example 39, N-(5-(difluoromethoxy)-1H-pyrazol-3-yl)-1-(3-fluorobenzyl)-1H-pyrazolo[3,4-b]pyrazin-6-amine], for which the IC50 in experiment [1] is 20 to 30 nM; in experiment [2], at least 500 nM.
The like results for `CC[C@@H](c1cccnc1)n1ncc2ncc(Nc3cc(OC(F)F)[nH]n3)nc21` [Example 94, (S)-N-(5-(difluoromethoxy)-1H-pyrazol-3-yl)-1-(1-(pyridin-3-yl)propyl)-1H-pyrazolo[3,4-b]pyrazin-6-amine] were, in that order, at most 10 nM and at least 500 nM.
Consider `COc1cc(Nc2cnc3cnn(CC4CCOCC4)c3n2)n[nH]1` [Example 92, N-(5-methoxy-1H-pyrazol-3-yl)-1-((tetrahydro-2H-pyran-4-yl)methyl)-1H-pyrazolo[3,4-b]pyrazin-6-amine], for which the results for the IC50 in experiment [1] and in experiment [2] were at most 10 nM and at least 500 nM, respectively.
In the case of `C[C@@H](c1ccc(F)nc1)n1ncc2ncc(Nc3cc(OC(F)F)[nH]n3)nc21` (single isomer, unassigned) [Example 152, (R)-N-(5-(difluoromethoxy)-1H-pyrazol-3-yl)-1-(1-(6-fluoropyridin-3-yl)ethyl)-1H-pyrazolo[3,4-b]pyrazin-6-amine or (S)-N-(5-(difluoromethoxy)-1H-pyrazol-3-yl)-1-(1-(6-fluoropyridin-3-yl)ethyl)-1H-pyrazolo[3,4-b]pyrazin-6-amine], the IC50 in experiment [1] was 20 to 30 nM; in experiment [2], at least 500 nM.
`FC(F)Oc1cc(Nc2cnc3cnn(CC4CCOCC4)c3n2)n[nH]1` [Example 2, N-(5-(difluoromethoxy)-1H-pyrazol-3-yl)-1-((tetrahydro-2H-pyran-4-yl)methyl)-1H-pyrazolo[3,4-b]pyrazin-6-amine]: the IC50 was at most 10 nM in experiment [1] and 100 to 500 nM in experiment [2].
With `C[C@@H](c1cccnc1Cl)n1ncc2ncc(Nc3cc(OC(F)F)[nH]n3)nc21` [Example 60, (S)-1-(1-(2-chloropyridin-3-yl)ethyl)-N-(5-(difluoromethoxy)-1H-pyrazol-3-yl)-1H-pyrazolo[3,4-b]pyrazin-6-amine], the results for the IC50 in experiment [1] and in experiment [2] were at most 10 nM and at least 500 nM, respectively.
`N#C[C@H]1C[C@H](Cn2ncc3ncc(Nc4cc(OC(F)F)[nH]n4)nc32)C1` (single isomer, unassigned) [Example 191, (1s,3s)-3-((6-((5-(difluoromethoxy)-1H-pyrazol-3-yl)amino)-1H-pyrazolo[3,4-b]pyrazin-1-yl)methyl)cyclobutane-1-carbonitrile or (1r,3r)-3-((6-((5-(difluoromethoxy)-1H-pyrazol-3-yl)amino)-1H-pyrazolo[3,4-b]pyrazin-1-yl)methyl)cyclobutane-1-carbonitrile]: the IC50 in experiment [1] was at most 10 nM; in experiment [2], 100 to 500 nM.
In the same order, the values of `C[C@@H]([C@H]1CCCOC1)n1ncc2ncc(Nc3cc(OC(F)F)[nH]n3)nc21` (single isomer, unassigned) [Example 216] are 10 to 20 nM and at least 500 nM.
As to `FC(F)Oc1cc(Nc2cnc3cnn(C[C@@H]4COCCO4)c3n2)n[nH]1` [Example 88, (R)-1-((1,4-dioxan-2-yl)methyl)-N-(5-(difluoromethoxy)-1H-pyrazol-3-yl)-1H-pyrazolo[3,4-b]pyrazin-6-amine], the IC50 in experiment [1] is at most 10 nM; in experiment [2], at least 500 nM.
In the same order, the values of `FC(F)Oc1cc(Nc2cnc3cnn([C@H](c4ccccn4)C(F)F)c3n2)n[nH]1` (single isomer, unassigned) [Example 149, (R)-1-(2,2-difluoro-1-(pyridin-2-yl)ethyl)-N-(5-(difluoromethoxy)-1H-pyrazol-3-yl)-1H-pyrazolo[3,4-b]pyrazin-6-amine or (S)-1-(2,2-difluoro-1-(pyridin-2-yl)ethyl)-N-(5-(difluoromethoxy)-1H-pyrazol-3-yl)-1H-pyrazolo[3,4-b]pyrazin-6-amine] are 30 to 100 nM and at least 500 nM.
